Consider 2 compounds from publication PMC5799307, “Creation of a long-acting nanoformulated dolutegravir” (Nature Communications, 2018).

Like-named read-outs stand apart in the source and are kept apart here.

Data set [1] has as its system HIV-1ADA. The data set is described as follows: Antiretroviral efficacy in MDM challenged with HIV-1ADA after single 8-h treatment (RT activity, p24). Format: cell-based. As to the method: (§1) Antiretroviral efficacy was determined by measurements of HIV reverse transcriptase (RT) activity. For IC50 determination, MDM were exposed to various concentrations (0.01–1000 nM) of DTG or MDTG for 1 h followed by challenge with HIV-1ADA[60] at a multiplicity of infection (MOI) of 0.1 infectious particles per cell for 4 h. Following viral challenge, cells were washed and incubated with the same concentration of drug used before infection for an additional 10 days in culture. Culture fluids were collected on day 10 for the measurement of RT activity as previously described[16],[62],[63]. To assess antiretroviral efficacy, MDM were treated with 100 μM DTG, MDTG, NDTG, or NMDTG as described above for 8 h. After treatment, cells were washed with PBS and cultured with fresh media, with half-media exchanges every other day. At 0, 4, 12 h, and 1, 5, 10, 15, 20, 25, or 30 days after treatment, cells were challenged with HIV-1ADA at an MOI of 0.1 infectious particles per cell for 16 h. After viral infection, the cells were cultured an additional 10 days with half-media exchanges every other day. Culture fluids were collected for measurement of RT activity as previously described[16],[62],[63]. Cells were fixed with 4% PFA and expression of HIV-1p24 antigen was determined by immunocytochemistry.
For immunocytochemistry, cells were washed with PBS and fixed with 4% PFA at room temperature for 15 min, followed by an additional washing with PBS. The cells were treated with a blocking/permeabilizing solution (1% Triton X-100, 10% BSA in PBS) and incubated with mouse monoclonal antibody to HIV-1p24 (1:100) for 16 h at 4 °C. Cells were washed with PBS, and polymer-based HRP-conjugated anti-mouse secondary was added for 30 min at room temperature. Cells were then washed with PBS and developed with DAB. Nuclei were counterstained with Mayer’s hematoxylin, and cells were visualized with a ×20 objective on a Nikon Eclipse E800 microscope (Melville, NY) with Nuance EX multispectral imaging system (PerkinElmer, Hopkinton, MA)[16],[59].

The subject of data set [2] is HIV-1ADA. The data set is described as follows: IC50 by HIV-1 RT activity in HIV-1ADA-infected MDM. Format: cell-based. The note with it: Human immunodeficiency virus 1, 240 h, HIV-1ADA MOI 0.1, RT activity day 10. As to the method: as §1
The test system of a further data set is MDM. The data set is described as follows: LDH cytotoxicity assay in MDM. Format: cell-based, human. The note with it: 24 h, 400 µM.
Data set [3] concerns human monocyte-derived macrophages (MDM). The format is cell-based. The note with it: 100 µM. As to the method: Human monocytes were obtained by leukapheresis from HIV-1/2 and hepatitis B seronegative donors, and then purified by counter-current centrifugal elutriation. Human monocytes were plated in a 12-well plate at a density of 1.0 × 10^6 cells per well using DMEM supplemented with 10% heat-inactivated pooled human serum, 1% glutamine, 10 µg/mL ciprofloxacin, and 50 µg/mL gentamicin. Cells were maintained at 37 °C in a 5% CO2 incubator. After 7 days of differentiation in the presence of 1000 U/mL recombinant human macrophage colony stimulating factor (MCSF), MDM were treated with 100 μM DTG, MDTG, NDTG, or NMDTG. Native drugs were added in DMSO (0.1% v/v). Uptake of drug was assessed by measurements of intracellular drug concentrations at 2, 4, 8, 12, 16, or 24 h after treatment. […] For both studies, adherent MDM were washed with PBS, then scraped into PBS, and counted at indicated time points using an Invitrogen Countess Automated Cell Counter (Carlsbad, CA). […] DTG and MDTG drug content was determined by UPLC-UV/Vis as described above. Release was assessed by collecting culture media after 4-h of drug treatment on days 1, 3, 5, 7, 10, 12, and 14. […] Supernatants were dried using a ThermoScientific Savant Speed Vacuum (Waltham, MA), extracted drug resuspended in 150 µL HPLC-grade methanol, and drug content was determined by UPLC-UV/Vis. […]

As usually defined, the inhibition is the percentage by which the read-out fell short of the control. By IC50 is commonly meant the concentration that gives 50% inhibition. A low value points to greater potency in that assay.

As for `C[C@@H]1CCO[C@H]2Cn3cc(C(=O)NCc4ccc(F)cc4F)c(=O)c(O)c3C(=O)N12` [DTG, dolutegravir], the inhibition at 100 µM with HIV-1ADA [1] (Human immunodeficiency virus 1, single 8-h treatment, read-out: maximal inhibition of HIV-1 RT activity) came out at 65%. Also, the “time after drug treatment for which efficacy was observed” value in the data set with HIV-1ADA [1] (single 8-h treatment, 100 µM) is reported as “up to 4 h”. For the same compound, it took 56.7 nM to reach half-maximal inhibition in the data set with HIV-1ADA [2] (IC50). Also, in the data set on MDM, the “cytotoxicity by LDH” value is given as “changes in cell vitality”. In addition, the “drug retained within MDM” value in data set [3] (24 h) was < 0.1 µg/10^6 cells.
Consider `CCCCCCCCCCCCCC(=O)Oc1c2n(cc(C(=O)NCc3ccc(F)cc3F)c1=O)C[C@@H]1OCC[C@@H](C)N1C2=O` [MDTG], for which the inhibition at 100 µM with HIV-1ADA [1] (Human immunodeficiency virus 1, challenge at day 30 after drug loading, read-out: viral inhibition) stood at 83%. The “beginning of viral breakthrough” value in the data set on HIV-1ADA [1] (days after single 8-h treatment, 100 µM) was 20 days. Further, the IC50 with HIV-1ADA [2] stood at 62.5 nM. Further, the “maximum cellular drug level” value in data set [3] (4 h) is 16.7 µg/10^6 cells.
